The results in this text go back to patent publication US11760756B2, “Crystalline form of a PD-1/PD-L1 inhibitor” (Incyte Corporation, priority 2020, dated 2023).

Molecules are shown by their SMILES.

Format in all cases: physicochemical
A short description of series [1]: water dynamic vapor sorption (DVS) analysis. The note with it: for water absorbed (DVS): 80% RH and 25° C., sample pre-dried under dried nitrogen for 1 hour (Form I at 50° C., Form IV at 25° C.). How it is done: (§1) Form I is a non-solvate and non-hydrate crystalline form. On DSC, it first undergoes dehydration at below 125° C. followed by melting at around 148-160° C. […] On TGA, approximately 2.4% weight loss is observed at below 120° C., which is mainly due to dehydration. The compound decomposes above 160° C. after melting. Like the amorphous powder of Compound 1 drug substance, this non-solvate and non-hydrate crystalline form (Form I) is hygroscopic. […] It decomposes above 160° C. after melting. During water dynamic vapor sorption (DVS) analysis of this non-solvate and non-hydrate crystalline form (Form I), approximately 6.5% of water was absorbed at 80% RH and 25° C. for this crystalline form and the sample was pre-dried at 50° C. under dried nitrogen (N2) for 1 hour before the DVS analysis. For comparison, approximately 12% of water was absorbed at 80% RH and 25° C. for the amorphous powder.
(§2) Like the amorphous powder of Compound 1 drug substance, this meta-stable non-solvate crystalline form (Form IV) is hygroscopic. During water dynamic vapor sorption (DVS) analysis of this non-solvate crystalline form (Form IV), approximately 8.2% of water was absorbed at 80% RH and 25° C. for this crystalline form and the sample was pre-dried at 25° C. under dried nitrogen (N2) for 1 hour before the DVS analysis.

A short description of series [2]: Thermogravimetric Analysis (TGA), decomposition. To be noted: ramp from 25° C. to 300° C. at 10° C./min. An excerpt:
X-Ray Powder Diffraction (XRPD): Compound 1 crystalline forms were characterized by XRPD. The X-Ray Powder Diffraction (XRPD) was obtained from Bruker D8 Advance ECO X-ray Powder Diffractometer (XRPD) instrument. The general experimental procedures for XRPD were: (1) X-ray radiation from copper at 1.5418 Å and LYNXEYE™ detector; (2) X-ray power at 40 kV, 25 mA; and (3) the sample powder was dispersed on a zero-background sample holder. The general measurement conditions for XRPD were: Start Angle 3 degrees; Stop Angle 30 degrees; Sampling 0.015 degrees; and Scan speed 2 degree/min. Differential Scanning calorimetry (DSC): Compound 1 crystalline forms were characterized by DSC. The DSC was obtained from TA Instruments Differential Scanning calorimetry, Discovery DSC2500 with auto sampler. The DSC instrument conditions were as follows: 20-300° C. at 10° C./min; Tzero aluminum sample pan and lid; and nitrogen gas flow at 50 mL/min. Thermogravimetric Analysis (TGA): Compound 1 crystalline forms were also characterized by TGA. The TGA was obtained from TA Instruments Thermogravimetric Analyzer, Discovery TGA5500 with auto sampler. The general experimental conditions for TGA were: ramp from 25° C. to 300° C. at 10° C./min; nitrogen purge gas flow at 25 mL/min; platinum sample holder.

A short description of series [3]: solid state form stability under water, humidity and drying conditions. How it is done: as §1, §2

As for `Cc1c(Nc2nccc3cc(CN4CC[C@@H](O)C4)cnc23)cccc1-c1cccc(-c2nc3cc(CN4CC[C@@H](C(=O)O)C4)cc(C#N)c3o2)c1C` [Form I, (R)-1-((7-cyano-2-(3′-(3-(((R)-3-hydroxypyrrolidin-1-yl)methyl)-1,7-naphthyridin-8-ylamino)-2,2′-dimethylbiphenyl-3-yl)benzo[d]oxazol-5-yl)methyl)pyrrolidine-3-carboxylic acid], the hygroscopicity result in series [1] is on record as “hygroscopic”. Moreover, in series [1], the “water absorbed (DVS)” value was “approximately 6.5%”. Also, in series [1], the “crystalline form change in the solid state after the DVS analysis” value was “No crystalline form change was observed”. Moreover, the “decomposition temperature (TGA)” value in series [2] is “above 160 °C”. Further, the “change in solid state form / hydrate formation” value in series [3] (after stirring in water at ambient temperature for overnight) is “no change in solid state form”; in series [3] (cycling from 5% RH to 95% RH and back to 5% RH at 25° C. and 5% RH interval), “no change in solid state form”; in series [3] (drying under dry nitrogen gas (N2) at 25° C. for one day) it was “no change in solid state form”; in series [3] (humidifying under 95% RH/25° C. for three days), “no change in solid state form”. Moreover, in series [3] (under the current investigated process conditions), the “thermodynamic stability of the crystalline form” value is recorded as “thermodynamically most stable crystalline form”.
As for `Cc1c(Nc2nccc3cc(CN4CC[C@@H](O)C4)cnc23)cccc1-c1cccc(-c2nc3cc(CN4CC[C@@H](C(=O)O)C4)cc(C#N)c3o2)c1C` [Form II, (R)-1-((7-cyano-2-(3′-(3-(((R)-3-hydroxypyrrolidin-1-yl)methyl)-1,7-naphthyridin-8-ylamino)-2,2′-dimethylbiphenyl-3-yl)benzo[d]oxazol-5-yl)methyl)pyrrolidine-3-carboxylic acid], the “decomposition temperature (TGA)” value in series [2] was “above 170 °C”.
On the same count and under the same terms, as for `Cc1c(Nc2nccc3cc(CN4CC[C@@H](O)C4)cnc23)cccc1-c1cccc(-c2nc3cc(CN4CC[C@@H](C(=O)O)C4)cc(C#N)c3o2)c1C` [Form III, (R)-1-((7-cyano-2-(3′-(3-(((R)-3-hydroxypyrrolidin-1-yl)methyl)-1,7-naphthyridin-8-ylamino)-2,2′-dimethylbiphenyl-3-yl)benzo[d]oxazol-5-yl)methyl)pyrrolidine-3-carboxylic acid], the entry is “above 160 °C”.
As for `Cc1c(Nc2nccc3cc(CN4CC[C@@H](O)C4)cnc23)cccc1-c1cccc(-c2nc3cc(CN4CC[C@@H](C(=O)O)C4)cc(C#N)c3o2)c1C` [Form IV, (R)-1-((7-cyano-2-(3′-(3-(((R)-3-hydroxypyrrolidin-1-yl)methyl)-1,7-naphthyridin-8-ylamino)-2,2′-dimethylbiphenyl-3-yl)benzo[d]oxazol-5-yl)methyl)pyrrolidine-3-carboxylic acid], in series [1], the hygroscopicity result is given as “hygroscopic”, the “water absorbed (DVS)” value is on record as “approximately 8.2%” and the “crystalline form change in the solid state after the DVS analysis” value is “No crystalline form change was observed”. Also, in series [2], the “decomposition temperature (TGA)” value was “above 140 °C”. The “crystalline form after further drying” value in series [3] (drying on the filter at ambient temperature for 3-6 days, residual THF approximately 0.1 wt %) is reported as “remained unchanged”.
As to `Cc1c(Nc2nccc3cc(CN4CC[C@@H](O)C4)cnc23)cccc1-c1cccc(-c2nc3cc(CN4CC[C@@H](C(=O)O)C4)cc(C#N)c3o2)c1C` [Form V, (R)-1-((7-cyano-2-(3′-(3-(((R)-3-hydroxypyrrolidin-1-yl)methyl)-1,7-naphthyridin-8-ylamino)-2,2′-dimethylbiphenyl-3-yl)benzo[d]oxazol-5-yl)methyl)pyrrolidine-3-carboxylic acid], in series [2], the “decomposition temperature (TGA)” value is “above 160 °C”.
With `Cc1c(Nc2nccc3cc(CN4CC[C@@H](O)C4)cnc23)cccc1-c1cccc(-c2nc3cc(CN4CC[C@@H](C(=O)O)C4)cc(C#N)c3o2)c1C` [amorphous powder, (R)-1-((7-cyano-2-(3′-((3-(((R)-3-hydroxypyrrolidin-1-yl)methyl)-1,7-naphthyridin-8-yl)amino)-2,2′-dimethyl-[1,1′-biphenyl]-3-yl)benzo[d]oxazol-5-yl)methyl)pyrrolidine-3-carboxylic acid], in series [1], the hygroscopicity result was “hygroscopic” and the “water absorbed (DVS)” value is on record as “approximately 12%”. Besides, the “decomposition temperature (TGA)” value in series [2] is “above 170 °C”.
